Assay results reported in PMC4439283 (The FEBS journal, 2015).
Read-outs that look alike come from different tables or passages of the source.

Assays:
R5 viruses [1] = conditions: ref [16]; cited from earlier work
X4 viruses [2] = conditions: ref [16]; cited from earlier work
R5 viruses [3] = conditions: ref [15], cited from earlier work
X4 strain LAV = conditions: ref [15]; cited from earlier work
X4 viruses [4] = conditions: ref [15]; cited from earlier work
[5] = in solution; ref [16]; cited from earlier work
[6] = molecular target: biotinylated ECL2S peptide (Biotin-GSGS-CCR5 R168-K197 C178S-GSGS) (human); experiment: SPR
[7] = molecular target: biotinylated ECL2S peptide (Biotin-GSGS-CCR5 R168-K197 C178S-GSGS) (human); experiment: SPR; remark: listed apart in the source
[8] = molecular target: biotinylated ECL2S peptide (Biotin-GSGS-CCR5 R168-K197 C178S-GSGS) (human); experiment: SPR; remark: listed apart in the source

Row | Substance | neutralization concentration range (R5 viruses [1]) [µM] | neutralization concentration range (X4 viruses [2]) [µM] | strain specificity (R5 viruses [3]; R5 strains) | 50% inhibition concentration, fusion (R5 viruses [3]; R5 virus Ba-L) [µg/mL] | fusion inhibition, R5 viruses (R5 viruses [3]; fusion of R5 viruses with target cells) | neutralization of X4 strain LAV (X4 strain LAV) | fusion inhibition, X4 viruses (X4 viruses [4]) | conformation of free peptide [5] | Kd [6] [µM] | Kd [7] [µM] | Kd [8] [µM]
1 | PL2: CCR5 ECL2 peptide, residues 168-191 (RSQKEGLHYTCSSHFPYSQYQFWK; UniProt P51681 168-191, looked up, fragment) | ~100 | ~100 | specific for R5 strains | 20 | inhibited the fusion of R5 viruses with target cells | None of these peptides neutralized the X4 strain LAV | did not inhibit fusion of X4 viruses | unstructured in solution |  |  | 
2 | ^mutgp120_(core) (HIV-1 JR-FL gp120 88-492, ΔV1/V2, V3 replaced by GAG, non-aggregating mutant) (domain or fragment) |  |  |  |  |  |  |  |  | 18 |  | 
3 | ^mutgp120_(core)/CD4M33 complex |  |  |  |  |  |  |  |  | 6 | 7.5 | 7
